The source of these data is ChEMBL document CHEMBL5715956, “Selective Targeting of Bromodomains of the Bromodomain-PHD Fingers Family Impairs Osteoclast Differentiation” (ACS Chem Biol, 2017).

Assay [1] has as its target CREB-binding protein (Homo sapiens) (UniProt Q92793). As to conditions: dose 10.0 µM.
The target in assay [2] is Bromodomain and WD repeat-containing protein 3 (Homo sapiens) (UniProt Q6RI45). As to conditions: dose 10.0 µM.
Assay [3] has as its target Bromodomain adjacent to zinc finger domain protein 2B (Homo sapiens) (UniProt Q9UIF8). As to conditions: dose 10.0 µM.
The target in assay [4] is 5-hydroxytryptamine receptor 7 (Homo sapiens) (UniProt P34969). Description: Inhibition of 5HT7 (unknown origin) at 10 uM relative to control.
Assay [5] deals with Muscarinic acetylcholine receptor M2 (Homo sapiens) (UniProt P08172). The assay can be described thus: Inhibition of M2 receptor (unknown origin) at 10 uM relative to control.
For assay [6], the target named is Bromodomain adjacent to zinc finger domain protein 2A (Homo sapiens) (UniProt Q9UIF9). As to conditions: dose 10.0 µM.
Assay [7] has as its target Bromodomain-containing protein 4 (Homo sapiens) (UniProt O60885). Description: Binding affinity to BRD4 BD1 (unknown origin) assessed as change in gibbs free energy at 14 uM by Isothermal titration calorimetry. A general note: ITC needs no label: the signal is the heat of the interaction.
The target of assay [8] is Transcription intermediary factor 1-beta (Homo sapiens) (UniProt Q13263). As to conditions: dose 10.0 µM.
The target in assay [9] is 5-hydroxytryptamine receptor 6 (Homo sapiens) (UniProt P50406). The assay can be described thus: Binding affinity to 5HT6 (unknown origin) assessed as specific binding at 10 uM relative to control.
The target of assay [10] is Protein polybromo-1 (Homo sapiens) (UniProt Q86U86). The conditions noted are these: dose 10.0 µM.
Assay [11] deals with T1, Bromodomain-containing protein 1 (Homo sapiens) (UniProt O95696).
T1 sequence (whole entry): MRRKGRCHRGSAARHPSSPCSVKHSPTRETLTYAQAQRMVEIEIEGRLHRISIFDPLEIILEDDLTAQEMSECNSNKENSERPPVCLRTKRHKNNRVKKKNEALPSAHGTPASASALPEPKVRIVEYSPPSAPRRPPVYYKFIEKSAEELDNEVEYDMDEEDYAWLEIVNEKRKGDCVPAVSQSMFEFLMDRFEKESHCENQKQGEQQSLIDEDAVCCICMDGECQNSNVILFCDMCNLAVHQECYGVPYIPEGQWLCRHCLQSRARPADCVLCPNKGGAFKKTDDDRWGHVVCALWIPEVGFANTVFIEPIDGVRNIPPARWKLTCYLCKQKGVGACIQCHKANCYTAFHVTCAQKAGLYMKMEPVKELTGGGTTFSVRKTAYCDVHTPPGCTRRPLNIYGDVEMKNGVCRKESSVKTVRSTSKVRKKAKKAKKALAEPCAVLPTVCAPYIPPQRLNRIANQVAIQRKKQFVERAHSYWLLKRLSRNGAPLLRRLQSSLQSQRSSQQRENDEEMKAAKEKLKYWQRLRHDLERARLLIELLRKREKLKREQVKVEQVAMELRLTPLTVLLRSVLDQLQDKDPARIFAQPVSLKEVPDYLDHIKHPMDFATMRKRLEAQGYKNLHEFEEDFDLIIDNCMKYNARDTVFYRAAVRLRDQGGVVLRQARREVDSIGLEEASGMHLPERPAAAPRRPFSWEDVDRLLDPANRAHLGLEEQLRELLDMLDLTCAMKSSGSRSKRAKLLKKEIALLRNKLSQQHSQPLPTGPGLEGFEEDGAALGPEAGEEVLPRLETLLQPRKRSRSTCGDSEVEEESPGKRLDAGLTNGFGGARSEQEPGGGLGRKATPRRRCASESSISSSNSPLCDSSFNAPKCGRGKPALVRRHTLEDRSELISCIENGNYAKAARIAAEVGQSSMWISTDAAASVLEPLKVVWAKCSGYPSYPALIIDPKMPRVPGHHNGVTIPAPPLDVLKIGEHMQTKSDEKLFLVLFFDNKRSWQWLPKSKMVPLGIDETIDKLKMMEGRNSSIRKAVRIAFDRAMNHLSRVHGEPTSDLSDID
The assay can be described thus: Binding affinity to BRPF2 (unknown origin) assessed as change in entropy TdeltaS at 12 uM by Isothermal titration calorimetry.

The target of assay [12] is Histone-lysine N-methyltransferase 2A (Homo sapiens) (UniProt Q03164). As to conditions: dose 10.0 µM.
For assay [13], the target named is Bromodomain-containing protein 7 (Homo sapiens) (UniProt Q9NPI1). The conditions noted are these: dose 10.0 µM.

Sequence of Bromodomain adjacent to zinc finger domain protein 2A (Homo sapiens) (Q9UIF9 whole entry, the tested form may be a part): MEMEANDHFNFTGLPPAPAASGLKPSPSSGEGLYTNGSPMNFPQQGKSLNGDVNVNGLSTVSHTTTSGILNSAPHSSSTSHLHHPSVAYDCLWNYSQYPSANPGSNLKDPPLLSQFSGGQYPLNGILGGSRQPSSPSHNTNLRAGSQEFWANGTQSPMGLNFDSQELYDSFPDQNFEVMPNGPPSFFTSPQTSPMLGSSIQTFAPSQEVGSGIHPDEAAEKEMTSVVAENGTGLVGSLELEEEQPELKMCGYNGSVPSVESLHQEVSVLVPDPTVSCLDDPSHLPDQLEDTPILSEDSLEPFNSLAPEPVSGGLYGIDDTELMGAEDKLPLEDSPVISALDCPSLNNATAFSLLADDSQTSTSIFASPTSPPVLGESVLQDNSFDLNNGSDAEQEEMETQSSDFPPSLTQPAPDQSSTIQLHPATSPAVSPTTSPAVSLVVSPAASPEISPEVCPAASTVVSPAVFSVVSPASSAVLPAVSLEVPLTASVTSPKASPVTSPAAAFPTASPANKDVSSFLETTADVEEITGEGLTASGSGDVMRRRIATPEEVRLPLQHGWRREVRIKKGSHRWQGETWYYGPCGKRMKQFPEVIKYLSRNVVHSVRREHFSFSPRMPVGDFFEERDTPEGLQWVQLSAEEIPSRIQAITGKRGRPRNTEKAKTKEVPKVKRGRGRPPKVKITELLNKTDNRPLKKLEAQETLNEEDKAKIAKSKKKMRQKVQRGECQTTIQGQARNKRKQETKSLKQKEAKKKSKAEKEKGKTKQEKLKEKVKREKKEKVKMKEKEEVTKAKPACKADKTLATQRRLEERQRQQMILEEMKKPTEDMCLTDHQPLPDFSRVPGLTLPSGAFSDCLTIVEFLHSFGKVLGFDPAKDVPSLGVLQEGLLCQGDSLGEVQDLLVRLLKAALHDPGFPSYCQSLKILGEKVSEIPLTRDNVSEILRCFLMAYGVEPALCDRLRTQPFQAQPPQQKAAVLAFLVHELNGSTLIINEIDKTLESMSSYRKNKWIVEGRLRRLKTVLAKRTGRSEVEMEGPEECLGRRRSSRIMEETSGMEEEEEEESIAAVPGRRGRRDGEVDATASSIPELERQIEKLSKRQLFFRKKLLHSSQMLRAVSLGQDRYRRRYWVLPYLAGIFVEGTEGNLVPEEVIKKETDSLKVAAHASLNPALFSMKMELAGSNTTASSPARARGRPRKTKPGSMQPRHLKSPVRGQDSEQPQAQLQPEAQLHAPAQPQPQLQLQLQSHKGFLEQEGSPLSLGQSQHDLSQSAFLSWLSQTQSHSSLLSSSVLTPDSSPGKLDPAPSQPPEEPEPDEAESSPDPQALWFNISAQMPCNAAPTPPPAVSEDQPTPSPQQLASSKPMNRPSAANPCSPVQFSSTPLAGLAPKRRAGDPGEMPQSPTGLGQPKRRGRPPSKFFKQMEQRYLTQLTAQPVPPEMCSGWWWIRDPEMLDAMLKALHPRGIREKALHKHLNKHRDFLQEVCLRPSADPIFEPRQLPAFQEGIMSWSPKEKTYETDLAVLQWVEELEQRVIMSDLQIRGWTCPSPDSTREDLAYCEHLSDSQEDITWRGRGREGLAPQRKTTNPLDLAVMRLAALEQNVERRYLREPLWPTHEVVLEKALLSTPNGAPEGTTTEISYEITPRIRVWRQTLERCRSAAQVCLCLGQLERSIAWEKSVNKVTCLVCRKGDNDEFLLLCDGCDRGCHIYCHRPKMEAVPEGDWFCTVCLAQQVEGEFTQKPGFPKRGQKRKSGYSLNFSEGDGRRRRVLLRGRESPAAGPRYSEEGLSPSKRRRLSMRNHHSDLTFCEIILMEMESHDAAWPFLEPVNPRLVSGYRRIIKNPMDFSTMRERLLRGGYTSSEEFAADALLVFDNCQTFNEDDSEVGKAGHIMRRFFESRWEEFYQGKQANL
Sequence of Bromodomain adjacent to zinc finger domain protein 2B (Homo sapiens) (Q9UIF8 whole entry, the tested form may be a part): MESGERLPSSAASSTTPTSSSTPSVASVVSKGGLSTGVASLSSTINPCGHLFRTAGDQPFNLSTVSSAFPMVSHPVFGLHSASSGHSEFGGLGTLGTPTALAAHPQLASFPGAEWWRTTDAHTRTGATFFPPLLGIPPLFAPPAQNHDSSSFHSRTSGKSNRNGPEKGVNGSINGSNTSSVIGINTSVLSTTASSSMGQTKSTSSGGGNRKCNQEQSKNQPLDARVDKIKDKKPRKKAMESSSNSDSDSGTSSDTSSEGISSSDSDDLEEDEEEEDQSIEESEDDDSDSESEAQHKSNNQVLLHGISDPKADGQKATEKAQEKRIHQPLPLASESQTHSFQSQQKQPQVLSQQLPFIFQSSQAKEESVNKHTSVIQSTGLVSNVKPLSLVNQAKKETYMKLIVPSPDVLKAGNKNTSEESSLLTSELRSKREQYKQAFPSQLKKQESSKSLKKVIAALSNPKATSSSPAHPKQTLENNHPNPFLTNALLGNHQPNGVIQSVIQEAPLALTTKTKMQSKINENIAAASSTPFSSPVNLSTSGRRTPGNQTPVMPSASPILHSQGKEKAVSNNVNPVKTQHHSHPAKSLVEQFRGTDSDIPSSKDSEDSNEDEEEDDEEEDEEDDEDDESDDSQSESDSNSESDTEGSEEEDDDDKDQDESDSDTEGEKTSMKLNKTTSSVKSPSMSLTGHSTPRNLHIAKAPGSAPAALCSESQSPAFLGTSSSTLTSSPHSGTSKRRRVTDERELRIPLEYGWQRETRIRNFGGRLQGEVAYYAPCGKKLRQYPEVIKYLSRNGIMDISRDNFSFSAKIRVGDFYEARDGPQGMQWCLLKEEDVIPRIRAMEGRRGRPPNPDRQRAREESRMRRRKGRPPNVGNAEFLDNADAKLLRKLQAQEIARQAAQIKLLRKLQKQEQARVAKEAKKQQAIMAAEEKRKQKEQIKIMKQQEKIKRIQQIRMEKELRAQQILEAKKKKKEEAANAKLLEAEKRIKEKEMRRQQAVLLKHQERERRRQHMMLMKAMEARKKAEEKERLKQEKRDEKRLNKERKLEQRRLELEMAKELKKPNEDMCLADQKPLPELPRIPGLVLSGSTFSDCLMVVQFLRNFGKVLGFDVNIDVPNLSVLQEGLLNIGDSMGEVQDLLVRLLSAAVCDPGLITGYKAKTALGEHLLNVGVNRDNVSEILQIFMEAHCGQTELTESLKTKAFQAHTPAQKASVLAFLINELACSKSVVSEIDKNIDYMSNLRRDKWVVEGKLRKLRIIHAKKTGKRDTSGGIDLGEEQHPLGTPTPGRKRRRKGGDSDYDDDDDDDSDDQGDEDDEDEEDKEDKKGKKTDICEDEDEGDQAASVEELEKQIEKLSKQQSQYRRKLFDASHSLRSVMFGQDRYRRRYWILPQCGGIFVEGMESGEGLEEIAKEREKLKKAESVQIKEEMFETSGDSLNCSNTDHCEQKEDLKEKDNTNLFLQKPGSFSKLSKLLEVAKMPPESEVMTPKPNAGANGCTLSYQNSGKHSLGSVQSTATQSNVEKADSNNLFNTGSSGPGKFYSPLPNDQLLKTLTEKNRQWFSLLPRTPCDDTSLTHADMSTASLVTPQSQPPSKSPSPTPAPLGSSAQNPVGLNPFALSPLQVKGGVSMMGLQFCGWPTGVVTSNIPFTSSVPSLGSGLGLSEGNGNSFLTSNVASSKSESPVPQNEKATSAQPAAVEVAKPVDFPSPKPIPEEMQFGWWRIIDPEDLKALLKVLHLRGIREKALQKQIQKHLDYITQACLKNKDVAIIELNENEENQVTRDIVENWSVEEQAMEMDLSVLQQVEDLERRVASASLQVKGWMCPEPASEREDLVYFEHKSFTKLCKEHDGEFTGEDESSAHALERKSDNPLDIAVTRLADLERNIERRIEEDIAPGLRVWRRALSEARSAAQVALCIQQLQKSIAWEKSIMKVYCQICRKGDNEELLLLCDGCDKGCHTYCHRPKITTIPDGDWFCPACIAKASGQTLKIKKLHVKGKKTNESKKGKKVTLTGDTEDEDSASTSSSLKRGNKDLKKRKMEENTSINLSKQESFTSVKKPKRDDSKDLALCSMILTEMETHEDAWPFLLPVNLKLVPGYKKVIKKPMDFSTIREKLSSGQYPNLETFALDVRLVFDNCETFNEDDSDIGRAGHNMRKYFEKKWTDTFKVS
Sequence of Muscarinic acetylcholine receptor M2 (Homo sapiens) (P08172 whole entry, the tested form may be a part): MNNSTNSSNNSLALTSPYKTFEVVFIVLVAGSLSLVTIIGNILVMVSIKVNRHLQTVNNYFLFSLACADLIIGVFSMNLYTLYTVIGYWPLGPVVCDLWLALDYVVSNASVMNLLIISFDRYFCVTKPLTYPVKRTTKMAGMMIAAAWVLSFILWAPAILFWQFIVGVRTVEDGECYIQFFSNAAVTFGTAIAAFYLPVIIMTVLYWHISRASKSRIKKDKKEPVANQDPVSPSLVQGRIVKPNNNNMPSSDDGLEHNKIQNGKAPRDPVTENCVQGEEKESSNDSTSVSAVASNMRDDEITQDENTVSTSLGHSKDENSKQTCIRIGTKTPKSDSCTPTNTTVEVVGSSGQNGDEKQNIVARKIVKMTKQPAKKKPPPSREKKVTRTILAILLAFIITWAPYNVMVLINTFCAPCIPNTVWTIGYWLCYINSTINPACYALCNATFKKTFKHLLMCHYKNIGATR
Sequence of 5-hydroxytryptamine receptor 7 (Homo sapiens) (P34969 whole entry): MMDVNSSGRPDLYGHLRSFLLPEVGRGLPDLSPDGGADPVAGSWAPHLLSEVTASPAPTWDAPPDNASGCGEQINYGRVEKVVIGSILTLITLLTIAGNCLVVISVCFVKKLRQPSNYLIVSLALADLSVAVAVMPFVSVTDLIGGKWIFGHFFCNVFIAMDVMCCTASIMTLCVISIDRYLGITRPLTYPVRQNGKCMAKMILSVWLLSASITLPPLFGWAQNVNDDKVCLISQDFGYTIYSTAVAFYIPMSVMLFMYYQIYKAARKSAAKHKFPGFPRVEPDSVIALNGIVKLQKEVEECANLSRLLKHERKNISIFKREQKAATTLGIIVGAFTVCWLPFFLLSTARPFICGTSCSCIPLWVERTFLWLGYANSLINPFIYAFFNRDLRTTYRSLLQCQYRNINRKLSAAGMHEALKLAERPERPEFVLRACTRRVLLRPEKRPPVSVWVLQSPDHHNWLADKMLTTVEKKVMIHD

The term ΔTm denotes the shift of the melting midpoint relative to a reference. As usually defined, the inhibition is the percentage by which the read-out fell short of the control. The low end stands for little suppression, the high end for strong suppression. Regarding `COc1cc2c(cc1NS(=O)(=O)c1ccc(Br)cc1C)n(C)c(=O)n2C`, the ΔTm came to 0.4 °C in assay [1]; 1.3 °C in assay [2]; 0.9 °C in assay [3]; 0.2 °C in assay [6]; 0.2 °C in [8]; 0.8 °C in assay [10]. In addition, the ΔTm in [12] stood at 0.3 °C; in assay [13], 1.2 °C. For the same compound, the values for the inhibition in [4] and in assay [5] were 2% and 9%, respectively. Moreover, the deltaG in assay [7] is -7.13 kcal/mol. Further, in assay [9], the Activity came to 49.9%. Besides, the TdeltaS in assay [11] is -1.2 kcal/mol.
